# Measurements from patent US20080009546A1 (Chevron U.S.A. Inc., priority 2005, published 2008).
# Read-outs that look alike come from different tables or passages of the source.
# Tests used:
# [1] = biological target: NMDA receptor; assay: [3H]MK-801 binding assay, NMDA receptors in guinea pig brain membranes
# Description: Hartley guinea pigs were sacrificed, and their brains were quickly removed and weighed. The brains then were homogenized in 50 mM Tris HCl buffer, pH 7.7, using a Polytron homogenizer. The homogenate was centrifuged at 40,000×g for 15 min, rehomogenized, and centrifuged again. The final pellet was resuspended in Tris-HCl, pH 7.7, at a final concentration of 6.67 mg original wet weight of tissue/ml. […] The samples were then filtered through glass fiber filters on a Tomtec cell harvester. The filters were washed 3 times with 3 ml of cold buffer. Filters were dried overnight and counted next day on a Wallac Betaplate Reader.
# The binding experiments were conducted as follows. […] For each compound, graphs were prepared containing individual competition curves obtained for that compound. IC50 values and Hill coefficients were calculated using the program Prism. Ki values were calculated using the Chang Prusoff transformation: Ki=IC50/(1+L/Kd)
# where L is radioligand concentration and Kd is the binding affinity of the radioligand, as determined previously by saturation analysis. […] In each experiment, one standard compound was simultaneously run on each 96 well plate.
# [2] = tested on: C57/BL6 male mice
# [3] = tested on: C57/BL6 male mice; assay: Rotarod test (balance and coordination, side effects); conditions: mouse, in vivo
# Description: The side effects of the compounds was primarily evaluated using the rotarod test, which mainly assesses the balancing and coordination of mice. The comparisons were made on fall time of the mice between the first measure (pre-treatment) and second measure taken 20 min after the drug/vehicle injection in the same group (paired t-test). […] Comparisons of the rotatod fall times after drug/vehicle dosing were made between drug treatment and control groups (unpaired t-test).
# [4] = tested on: primary neurons from rat cerebral cortex; assay: NMDA-induced LDH release assay in primary cortical neurons (neuroprotection); format: cell-based; design: Total LDH (Avg): unit not given here
# Procedure, shortened: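 Fetal rat (E16–E18) cortical neurons on mouse astroglial feeder layers, fed growth medium/neurobasal+B27 (1:1), used after 11–14 days. Treatments given in Locke's buffer pH 7.4 for 15 min, then cells washed; 24 h later percent LDH released = 100×secreted/(total+secreted), tetrazolium readout.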
# [5] = tested on: NMDA receptor; assay: Whole-cell voltage-clamp recordings of NMDA evoked currents in hypocretin neurons (hypothalamic slices); format: cell-based, mouse
# [6] = NMDA 300 uM + Memantine 50 uM, Plate #4, poly-lysine-coated rat neurons, GM/NB + B-27 fed, 24 hour incubation
# [7] = NMDA 300 uM + Memantine 50 uM, Plate #5, astrocyte-coated rat neurons, GM fed, 24 hour incubation
# [8] = NMDA 300 uM + Memantine 50 uM, astrocyte-coated rat neurons, GM/NB + B-27 fed, 24 hour incubation
# [9] = NMDA 500 μM + Memantine 10 μM, astrocyte-coated rat neurons, GM/NB + B-27 fed, 21 hour incubation
# [10] = NMDA 500 uM + Memantine 10 uM, poly-lysine-coated rat neurons, GM/NB + B-27 fed, 40 hour incubation
# [11] = NMDA 500 μM + Memantine 100 μM, astrocyte-coated rat neurons, GM/NB + B-27 fed, 21 hour incubation
# [12] = NMDA 500 uM + Memantine 100 uM, poly-lysine-coated rat neurons, GM/NB + B-27 fed, 40 hour incubation
structure (smiles),measurement,setting,value
"CC12CC3CC(C)(C1)CC(N)(C3)C2 [memantine, 1-amino-3,5-dimethyladamantane, reference compound]",Ki,"[1]; [3H]MK-801 (1 nM), guinea pig brain membrane preparation, read-out: Ki (binding affinity)",730 nM
same,Relative affinity,[1]; compared to that of Memantine,1 ^
same,Ki,"[1]; standard compounds at the NMDA site (Table 27), read-out: Ki",733 ± 130 nM
same,Extension rate,[2]; 10 mg/kg i.p.,0.67
same,Mortality rate,[2]; 10 mg/kg i.p.,0
same,# of deaths,"[2]; 10 mg/kg i.p., 6 mice",0
same,# of extensions,"[2]; 10 mg/kg i.p., 6 mice",4
same,MES-induced death,"[2]; low dose 10 mg/kg i.p., mice",protected all mice from death
same,"rotarod fall time, pre-treatment vs 20 min after injection",[3],loss of performance
same,hyperactivity (side effect),"[3]; ip, 30 mg/kg",observed
same,rotarod performance after dosing vs. control,"[3]; ip, 30 mg/kg",statistically significant decreases in rotarod performance
same,% (Control Wash = 100),[4]; [6],166%
same,Secreted LDH (Avg),[4]; [6],0.75
same,Secreted/(total + secreted) (Avg),[4]; [6],18.20
same,Total LDH (Avg),[4]; [6],3.36
same,% (Control Wash = 100),[4]; [7],106%
same,Secreted LDH (Avg),[4]; [7],0.20
same,Secreted/(total + secreted) (Avg),[4]; [7],6.20
same,Total LDH (Avg),[4]; [7],3.06
same,% (Control Wash = 100),[4]; [8],272%
same,Secreted LDH (Avg),[4]; [8],0.83
same,Secreted/(total + secreted) (Avg),[4]; [8],19.63
same,Total LDH (Avg),[4]; [8],3.41
same,% (Control Wash = 100),[4]; [9],129%
same,Secreted LDH (Avg),[4]; [9],0.47
same,Secreted/(total + secreted) (Avg),[4]; [9],10.73
same,Total LDH (Avg),[4]; [9],3.89
same,% (Control Wash = 100),[4]; [10],111%
same,Secreted LDH (Avg),[4]; [10],0.41
same,Secreted/(total + secreted) (Avg),[4]; [10],12.77
same,Total LDH (Avg),[4]; [10],2.80
same,% (Control Wash = 100),[4]; [11],114%
same,Secreted LDH (Avg),[4]; [11],0.42
same,Secreted/(total + secreted) (Avg),[4]; [11],9.47
same,Total LDH (Avg),[4]; [11],4.02
same,% (Control Wash = 100),[4]; [12],156%
same,Secreted LDH (Avg),[4]; [12],0.52
same,Secreted/(total + secreted) (Avg),[4]; [12],17.86
same,Total LDH (Avg),[4]; [12],2.39
same,reversibility of inhibition of NMDA evoked currents upon washout,[5],reversible
same,inhibition of the peak amplitude of NMDA evoked currents,[5]; 10 µM,41.3±10%
same,inhibition of the peak amplitude of NMDA evoked currents,[5]; 30 µM,52.7±7.4%
